Entries after “also recorded” stand apart in the source; their conditions may differ. Structures can show the parent of a compound that is named as a salt.
How the values were obtained:
[1] = test system: type A GABA channel receptors (GABAa-R); assay: Whole-cell patch-clamp, effect on GABA-induced ionic current; format: cell-based, human; conditions: 0.25 μM compound, GABA 10 μM in the recording pipette; for Effect on the type A GABA receptor channel or GABAa-R: whole cell patch-clamp
Procedure: The studies were conducted using an electrophysiological approach. The activity of the cells was recorded using the patch-clamp technique in its so-called whole cell configuration. The mediums used for the recordings have the following composition (in mM): NaCl ([…]), KCl (2), CaCl2 (1), MgCl2 (2), HEPES (10) for the medium bathing the cells and NaCl (132), KCl (2), CaCl2 (1), MgCl2 (2), TEA (15), HEPES (10) for the recording pipette, the pH was adjusted in both cases to 7.4 with NaOH. The GABA 10 μM was added into the recording pipette.
After producing a “gigaseal” (Planar patch clamp) between the cellular membrane and the tip of a pipette with an electrical resistance comprised between 4 and 7 MO, the ionic currents were measured using a patch-clamp amplifier (Axopatch B200, Axon Instruments, CA). The acquisition of the signal (acquisition frequency of 10 kHz) was done using an interface card (Digidata 1322A, Axon Instruments, CA) and the pClamp 8 software (Axons Instruments, CA).
The allopregnanolone and the BR053, BR338, BR297 and BR351 derivatives were solubilized in pure ethanol before being diluted in the medium to the desired concentration. The dilution factor was at least equal to 2×10^4, which makes the final concentration of ethanol in the recording solution remain below […] (a concentration not affecting the activity of the GABAa receptor).
Depending on the experiments, the allopregnanolone or the BR053, BR338, BR297 or BR351 derivatives, at the concentration of 0.25 μM, were either added in the recording pipette at the same time as the GABA, or applied to the cell by perfusion.
The application was done by gravity through a multi-path perfusion system made up of glass tubes each having an inner diameter of 1 mm. The selected path was placed across from the recorded cell at approximately 100 μm. The solution was changed by calibrated rotation of the tubes using a stepping motor thus placing the new selected path across from the cell. Synchronously with that rotation, the solenoid valve controlling the flow of the selected path was also opened and the preceding one closed.

Sprague-Dawley rats [2] = assay: Acetone test of thermal allodynia to cold, painful neuropathy caused by vincristine; format: in vivo, rat
Excerpt: (§1) Adult male Sprague-Dawley rats weighing between 250 and 300 g were used. They came from the company Janvier (le Genest St. Isle, France). The care and handling of the animals were done in accordance with the guidelines from the Council of the European Community (86/609/EC) and in accordance with the ethical rules of the International Association for the Study of Pain. The protocol used to carry out the in vivo studies was subject to examination and authorization granted to Prof. Mensah-Nyagan's team by the Alsatian Department of the Veterinary Public Health Guide for the Care and Use of Laboratory Animals (Approval number 67-186). The rats were housed under standard conditions with a photoperiod of 12 h day/12 h night, with unlimited food and water. The animals spent one acclimatization week before being integrated into the experimental protocols. Each animal was examined daily to detect any signs of deterioration of its health condition, such as dramatic weight loss, a decrease in appetite during chemotherapy and pharmacological treatment.
(§2) Vincristine sulfate (VINC), purchased from Sigma-Aldrich (St. Louis, Mo., USA), was dissolved in a physiological saline solution (NaCl 0.9%) at 0.1 mg/ml and stored at 4° C. The saline solution (NaCl 0.9%) is used as excipient. The VINC is injected daily by intraperitoneal injection (i.p.), in 2 cycles of 5 days separated by 2 days off, at a concentration of 0.1 mg/kg/day. The control animals were injected by i.p. (1 ml/kg) with the excipient using a similar protocol.
(§3) The allopregnanolone in the derivatives according to the invention (BR053 and BR297) were diluted in a hydroxypropylcellulose (HPC) solution (0.3%) used as excipient. The curative treatment with allopregnanolone, BR053 or BR297 began 3 days after the vincristine cycles. Each of these compounds (allopregnanolone, BR053 or BR297) was administered by the intraperitoneal route at a dose of 4 mg/kg at a rate of one injection every 2 days. Thus, over the total duration of the in vivo experiments (14 days), each animal received 7 injections of excipient, allopregnanolone, BR053 or BR297, based on its group, at a dose of 4 mg/kg. The animals were sacrificed 24 hours after the last behavioral test (28th day) to remove tissues that will be used for later histology and electrophysiology studies.
The thermal nociceptive sensitivity threshold to cold was measured in rats placed in individual Plexiglas boxes (30×30×25 cm) mounted on a raised mesh support so as to allow access to the sole of the animal's foot. […] Six measurements (3 per foot) were performed with a latency of 5 minutes between each stimulation. The average latency for withdrawal of the feet (in seconds) was calculated by averaging 6 measurements at each studied point in time. […]

Sprague-Dawley rats [3] = assay: Von Frey filament test, painful neuropathy caused by vincristine; format: in vivo, rat
Excerpt: as §1, §2, §3
(§4) The mechanical nociceptive sensitivity threshold was evaluated in rats placed in individual Plexiglas boxes (30×30×25 cm) mounted on a raised mesh support thereby allowing access to the surface or arch of the back feet. The presence of allodynia (exaggerated response following a normally […] stimulation) was measured using a series of calibrated von Frey filaments (1, 2, 4, 6, 8, 10, 15, 26, 100, 180 and 300 g; Stoelting, Wood Dale, Ill., USA), which were applied on the sole of the back foot of the animal with increasing force until the filament twisted. The filament was applied for a period of 1 to 2 seconds and the procedure was repeated 5 times at 4-5 second intervals. The withdrawal threshold of the foot was calculated by taking the average of […] repeated stimuli (in grams) that caused a reflex to withdraw the foot. Only vigorous and fast withdrawals of the foot were considered positive. In the experiments, the naïve animals never responded to the 4 g filament and responded 25-30% of the time to the 15 g filament.

Sprague-Dawley rats [4] = assay: Von Frey mechanical nociceptive sensitivity threshold in healthy animals not treated with vincristine; format: in vivo, rat; conditions: 4 mg/kg every 2 days for 2 weeks
Excerpt: as §1, §3
as §4, with “In the experiments, the naïve animals never responded to the 4 g filament and responded 25-30% of the time to the 15 g filament.” left out

[5] = test system: SH-SY5Y human neuroblastomas; assay: Neuroprotection against cell death caused by oxidizing stress (H2O2), MTT readout; format: cell-based; design: key to Neuroprotective effect against cell death caused by oxidizing stress: −: no effect; +: low effect; ++: high effect; +++: very high effect; conditions: H2O2 1 mM; for Neuroprotective effect against cell death caused by oxidizing stress: SH-SY5Y cultures, 24 or 48 hours, MTT; for Protection of human neuroblastomas from cell death caused by H2O2 (in words): SH-SY5Y
Procedure: (§5) The cellular model used to carry out the in vitro experiments is a line of human neuroblastomas called line SH-SY5Y.
(§6) The human neuroblastoma is a cultivated at 37° C. in a humidity saturated atmosphere, under 5% CO2 in a culture medium formed by DMEM with an added 10% (v/v) fetal calf serum, 5% (v/v) horse serum, 2 mM glutamax and 1% (v/v) of the penicillin/streptomycin mixture.
The human neuroblastomas were incubated with the culture medium alone or containing the chief inducing agent of oxidizing stress, hydrogen peroxide (H2O2), at various concentrations in order to determine the concentrations of H2O2 and the incubation times causing the death of a significant percentage of the cells. The neuroprotective properties of the BR053, BR338, BR297 and BR351 derivatives were determined by pretreating the SH-SY5Y cells with the culture medium alone or respectively containing the BR053, BR338, BR297 or BR351 derivative. After pretreatment, each of these categories of cells was integrated for 24 hours or 48 hours with the following solutions: (i) culture medium; (ii) culture medium containing only the BR053, BR338, BR297 or BR351 derivative; (iii) culture medium containing only H2O2 at a concentration of 1 mM, which causes a high percentage of cell death; (iv) culture medium containing both H2O2 (1 mM) and one of the BR053, BR338, BR297 or BR351 derivatives.
10 μl of a stock solution of tetrazolium, abbreviated MTT, at 3.6 mM was added in each well and the incubation continued in darkness for 5 h at 37° C. After cell lysis, spectrophotometer measurements at 595 nm were carried out to determine the survival and cell density under each of the conditions described above.

[6] = test system: SH-SY5Y human neuroblastomas; assay: MTT assay of cell viability and density: effect on cell proliferation; format: cell-based; design: key to Effect on cell proliferation (neural proliferative effect): −: no effect; +: low effect; ++: high effect; +++: very high effect; conditions: SH-SY5Y cultures
Procedure: as §5, §6
The cellular viability and the density (or number of SH-SY5Y cells/cm^2) were determined using the MTT reduction assay. The MTT technique is a colorimetric test that measures the reduction of the tetrazolium salt (3-[4,5-dimethylthiazol-2-yl]-2,5-diphenyl tetrazolium bromide) in formazan by the succinate dehydrogenase present in the mitochondria of the living cells. The formazan forms blue crystals. Thus, after solubilization of the crystals, the measurement of the absorbance at 595 nm makes it possible to obtain absorbency values directly proportional to the number of viable cells and the cell density in the culture boxes.
The effects of derivatives BR053, BR338, BR297 and BR351 on cell proliferation were evaluated by comparing the number of viable cells and the cell density in the control culture boxes, treated only with the culture medium described in paragraph A1 above, and the culture boxes exposed to the culture medium with the added BR053, BR338, BR297 or BR351 derivatives.

[7] = rats with vincristine neuropathy, 4 mg/kg i.p. every 2 days for 2 weeks

| SMILES | Effect on the type A GABA receptor channel or GABAa-R [1] | Effect on the type A GABA receptor channel or GABAa-R ([1]; listed as allopregnanolone) | Effect on thermal allodynia to cold (Sprague-Dawley rats [2]; [7]) | Effect on mechanical allodynia and mechanical hyperalgesia (Sprague-Dawley rats [3]; [7]) | Anti-nociceptive effect in healthy animals (Sprague-Dawley rats [4]) | Mechanical nociceptive sensitivity threshold after treatment (Sprague-Dawley rats [4]; 80 g before) [g] | Latency for withdrawal of the foot, acetone test (Sprague-Dawley rats [2]; rats after vincristine chemotherapy, 20 seconds before) [s] | Von Frey filament that causes more than 70% of responses (Sprague-Dawley rats [3]; rats after vincristine 0.1 mg/kg/day i.p., 2 cycles of 5 days, 80 g before treatment) [g] | Responses to the 15 g filament (mechanical hyperalgesia) (Sprague-Dawley rats [3]; rats after vincristine chemotherapy, 30% before) [%] | Responses to the 4 g filament (mechanical allodynia) (Sprague-Dawley rats [3]; rats after vincristine chemotherapy, no response before treatment) | Time until desensitization of the GABAa-R channel [1] [min] | Neuroprotective effect against cell death caused by oxidizing stress [5] | Protection of human neuroblastomas from cell death caused by H2O2 (in words) [5] | Effect on cell proliferation (neural proliferative effect) [6] | Effect on the proliferation of human neuroblastomas (in words) [6] |
| --- | --- | --- | --- | --- | --- | --- | --- | --- | --- | --- | --- | --- | --- | --- | --- |
| CC(=O)[C@H]1CCC2C3CC[C@H]4C[C@H](O)CC[C@]4(C)C3CC[C@@]21C (stereo partly drawn) [Allopregnanolone, reference compound] | Positive allosteric effect | positive allosteric effect | eliminates the symptoms | eliminates the symptoms | significant anti-nociceptive effect | 200 | – | – | – | – | – | – | – | – | – |
| CC[C@]1(O)C[C@H]2CN(CCc3c([nH]c4ccccc34)[C@@](C(=O)OC)(c3cc4c(cc3OC)N(C=O)[C@H]3[C@@](O)(C(=O)OC)[C@H](OC(C)=O)[C@]5(CC)C=CCN6CC[C@]43[C@@H]65)C2)C1 [vincristine, Vincristine sulfate] | – | – | – | – | – | – | 11 | 20 | ~70 | more than 30% | – | – | – | – | – |
| C=CCO[C@@H]1CC[C@]2(C)C3CC[C@@]4(C)C(CC[C@@H]4C(C)=O)C3CC[C@H]2C1 (stereo partly drawn) [BR351] | only temporarily reproduces the positive allosteric effect; also recorded: Temporary positive allosteric | – | – | – | – | – | – | – | – | – | 1 | +++ | capable of protecting human neuroblastomas from the cell death | +++ | very high effectiveness |
| CC(=O)[C@H]1CCC2C3CC[C@H]4C[C@H](O)CC[C@]4(C)C3CC(=O)[C@@]21C (stereo partly drawn) [BR338] | Positive allosteric effect | – | – | – | – | – | – | – | – | – | – | + | capable of protecting human neuroblastomas from the cell death | ++ | high effectiveness |

Source: patent US20190002492A1, “DERIVATIVES OF ALLOPR[…] OF EPIALLOPR[…] USES THEREOF FOR TREATING A NEUROPATHOLOGICAL CONDITION” (UNIVERSITE DE STRASBOURG, priority 2011, published 2019)
